Results on one molecule are retold here after US20070077311A1, “Fumigant/sterilant” (priority 2003, published 2007).

Data set [1] in a line: Flammability limit tests of cyanogen/CO2 mixtures in air. The format is physicochemical. An excerpt: The apparatus allows continuous metering and mixing of known proportions of cyanogen, carbon dioxide and air. This permitted a number of ignition tests to be made in a relatively short period.
The apparatus comprises sources of compressed air 1, carbon dioxide 2 and the active chemical cyanogen 3. […] The resultant mixture flows through tube 7 where it is diverted to an oxygen analyser 8 to determine its content, and an ignition tube 9 with ignition source 10 for flammability testing.
Similarly, for the tests involving the addition of carbon dioxide, the proportions of air and CO2 were set using the previously arrived calibration material and at least two minutes were allowed to elapse between adjustment of the CO2/air proportions and ignition tests.
Ignition tests involved switching a high voltage across an approximately 5 mm gap 10 within the flow ignition tube 9. […]
Turning to FIG. 2, it is now possible to determine what proportion of cyanogen in carbon dioxide will remain inert in all proportions with air. Line A shown in FIG. 2 has the maximum slope that can be achieved whilst still remaining wholly below the experimentally determined lower explosive limits and passing through the origin.
For reasons of safety, the Applicant has determined a preferred content of around 20% v/v as this gives an additional margin of safety.

Data set [2] has as its system rat. The following applies: 1 hour inhalation; cited from earlier work.
For data set [3] the following is noted: cited from earlier work.

Molecules are shown by their SMILES.

As a reminder, the LC50 is the concentration lethal to half of the exposed cells or organisms. Regarding `N#CC#N` [cyanogen], the “maximum proportion of cyanogen in carbon dioxide which is inert in all proportions with air” value in data set [1] (from slope of Line A in FIG. 2, ignition source 2) is reported as “approximately 26%”. For the same molecule, the “maximum of cyanogen in carbon dioxide gas inert in all proportions of air” value in data set [1] (subsequent testing) was “around 26 % v/v”. Moreover, the LC50 in data set [2] was 350 ppm. The “Flammability limits in air” value in data set [3] is recorded as 6-32 % v/v. Besides, in data set [3] (literature value), the “known LEL of cyanogen in air” value is reported as 6% and the “known UEL of cyanogen in air” value is 32 % v/v.
